Converted amounts (≈) assume the structure as drawn.
Test: physchem
Type: physicochemical
Conditions: water
Method: In order to determine its water solubility, an excess of metronidazole was added to water, after which the mixture was stirred for 3 days at room temperature.

Cc1ncc([N+](=O)[O-])n1CCO [metronidazole] showed a solubility thermodynamic at 72 h of 8200 µg/mL (≈ 47.9 mM).

Source: EP1077677B1, “PROCESS FOR THE MANUFACTURE OF A BIOLOGICALLY ACTIVE COMPOSITION” (JAGOTEC AG, priority 1998, dated 1999)
